Test results: ChEMBL document CHEMBL1153036, “Structure-based de novo design and biochemical evaluation of novel Cdc25 phosphatase inhibitors” (Bioorg Med Chem Lett, 2009)

Tests used:
[1] = target: T1, M-phase inducer phosphatase 1 (Homo sapiens, UniProt P30304); test: Inhibition of N-terminal 6xHis-tagged human Cdc25A (336-523) catalytic domain expressed in Escherichia coli after 20 mins by fluorescent plate reader assay
T1 sequence (P30304 whole entry): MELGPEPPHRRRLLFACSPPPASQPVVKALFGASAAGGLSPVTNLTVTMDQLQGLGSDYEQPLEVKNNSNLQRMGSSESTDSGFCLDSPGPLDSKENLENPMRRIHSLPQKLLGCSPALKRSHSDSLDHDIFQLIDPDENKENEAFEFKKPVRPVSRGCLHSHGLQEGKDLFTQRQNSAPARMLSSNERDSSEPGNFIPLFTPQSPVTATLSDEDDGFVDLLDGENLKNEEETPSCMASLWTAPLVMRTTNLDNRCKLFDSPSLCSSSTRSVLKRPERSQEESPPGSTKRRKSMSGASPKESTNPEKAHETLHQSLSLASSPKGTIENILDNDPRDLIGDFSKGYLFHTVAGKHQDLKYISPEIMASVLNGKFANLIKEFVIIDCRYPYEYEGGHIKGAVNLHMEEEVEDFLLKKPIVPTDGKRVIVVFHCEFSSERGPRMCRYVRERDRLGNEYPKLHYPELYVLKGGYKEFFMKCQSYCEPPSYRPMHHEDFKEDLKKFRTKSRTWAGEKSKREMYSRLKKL

[2] = target: T2, M-phase inducer phosphatase 2 (Homo sapiens, UniProt P30305); test: Inhibition of N-terminal 6xHis-tagged (378-566) catalytic domain of Cdc25B expressed in Escherichia coli after 20 mins by fluorescent plate reader assay
T2 sequence (P30305 whole entry): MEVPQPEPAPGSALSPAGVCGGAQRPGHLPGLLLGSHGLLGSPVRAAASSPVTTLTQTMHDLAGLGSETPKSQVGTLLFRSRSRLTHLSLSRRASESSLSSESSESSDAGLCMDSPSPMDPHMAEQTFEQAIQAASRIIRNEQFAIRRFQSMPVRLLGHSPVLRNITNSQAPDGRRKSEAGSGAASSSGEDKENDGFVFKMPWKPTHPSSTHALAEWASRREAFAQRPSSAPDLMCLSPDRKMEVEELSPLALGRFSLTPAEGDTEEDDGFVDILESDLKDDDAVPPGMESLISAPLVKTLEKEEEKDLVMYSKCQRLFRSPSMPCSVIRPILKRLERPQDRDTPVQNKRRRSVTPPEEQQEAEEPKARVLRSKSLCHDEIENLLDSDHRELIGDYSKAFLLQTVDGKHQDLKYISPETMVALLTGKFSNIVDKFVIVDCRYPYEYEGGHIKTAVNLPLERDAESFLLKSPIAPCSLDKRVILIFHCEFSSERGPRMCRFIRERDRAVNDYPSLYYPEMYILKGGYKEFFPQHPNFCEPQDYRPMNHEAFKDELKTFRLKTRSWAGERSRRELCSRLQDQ

Row | IC50 [1] [µM] | IC50 [2] [µM] | Compound
1 | 12.6 | 2.6 | Oc1nc(Nc2ccc(Cl)cc2Cl)sc1/C=C1\C=Nc2ccccc21
2 | 9.2 | 4.7 | COc1ccc(-n2c(SCC(=O)c3ccc(O)c(O)c3)nnc2-c2ccc(C)cc2)cc1
3 | 7.7 | 2.7 | O=C1N=C(Nc2cccc(Br)c2)S/C1=C\C=C\c1ccco1
4 | 7.1 | 1.8 | Cc1ccc(/N=C2N=C(O)/C(=C/C=C/c3ccco3)S\2)cc1C
5 | 6.7 | 4.5 | O=C1N=C(Nc2ccc(Cl)cc2Cl)S/C1=C\C=C\c1ccco1
6 | 9.1 | 3.2 | O=C1N=C(Nc2cccc(Cl)c2)S/C1=C\C=C\c1ccco1
7 | 17.2 | 6 | CCn1c(SCC(=O)c2ccc(Cl)cc2)nnc1-c1cccnc1
8 | 13.1 | 4.2 | Cn1c(SCC(=O)c2ccc(-c3ccccc3)cc2)nnc1-c1ccncc1
9 | 8.1 | 2.3 | CC(=C/c1ccccc1)/C=C1\SC(Nc2ccc(C)c(C)c2)=NC1=O
10 | 5.1 | 1.2 | CC(=C/c1ccccc1)/C=C1\SC(Nc2cc(Cl)cc(Cl)c2)=NC1=O
11 | 11.1 | 4.4 | O=C1N=C(Nc2ccc(Cl)cc2)S/C1=C\c1cccs1
12 | 10.3 | 3.9 | CC(=C/c1ccccc1)/C=C1\SC(Nc2ccccc2Cl)=NC1=O
13 | 14.5 | 5.2 | C=Cn1c(SCC(=O)c2ccc(Cl)cc2)nnc1-c1ccco1
14 | 30.7 | 8.9 | O=C1N=C(Nc2ccc(F)cc2)S/C1=C\c1cccs1
15 | 10.1 | 2.1 | O=C1N=C(Nc2ccccc2Cl)S/C1=C\C=C\c1ccco1
16 | 17.3 | 5.1 | CC(=C/c1ccccc1)/C=C1\SC(Nc2ccc(Br)cc2)=NC1=O
17 | 6.2 | 2.1 | O=C1N=C(Nc2cccc(Cl)c2Cl)S/C1=C\C=C\c1ccco1
18 | 11.1 | 4.4 | Cn1c(SCC(=O)c2ccc([N+](=O)[O-])cc2)nnc1-c1cccc(Cl)c1
19 | 11.5 | 1.6 | O=C(CSc1nnc(-c2ccc(Cl)cc2)n1-c1ccccc1)c1ccc(O)c(O)c1
20 | 19 | 5.4 | Cn1c(SCC(=O)c2ccc([N+](=O)[O-])cc2)nnc1-c1cccc(NC(=O)c2ccccc2F)c1
21 | 7.8 | 2.8 | O=C1N=C(Nc2cccc(O)c2)S/C1=C\c1cccs1
22 | 6 | 1.7 | COc1ccc(-c2nnc(SCC(=O)c3ccc(O)c(O)c3)n2-c2ccccc2)cc1
23 | 7.1 | 2.5 | Cc1ccc(-c2nnc(SCC(=O)c3ccc(O)c(O)c3)n2-c2ccccc2)cc1
24 | 15.4 | 3.1 | Cn1cccc1/C=C1\SC(Nc2ccc(Cl)cc2)=NC1=O
25 | 12.8 | 3.3 | CC(=C/c1ccccc1)/C=C1\SC(Nc2cccc(Cl)c2)=NC1=O
26 | 4.1 | 2.3 | O=C1N=C(Nc2cc(Cl)cc(Cl)c2)S/C1=C\C=C\c1ccco1
27 | 13 | 2 | Cn1c(SCC(=O)c2ccc(-c3ccccc3)cc2)nnc1-c1ccco1
28 | 4.7 | 2.3 | Cc1ccc(-c2nnc(SCC(=O)c3ccc(O)c(O)c3)n2Cc2ccco2)cc1
29 | 12.7 | 2.3 | O=C1N=C(Nc2cc(Cl)cc(Cl)c2)S/C1=C\c1c[nH]c2ccccc12
30 | 14.3 | 3.7 | Cn1cccc1/C=C1\SC(Nc2ccc(F)cc2)=NC1=O
